For this assay, the target named is Mcl-1 protein (Homo sapiens, UniProt Q07820). The experiment in a line: Inhibition of Mcl-1 by the fluorescence polarisation technique. It is filed as binding. To be noted: Method 1 (not underlined) or Method 2 (underlined); underlining not visible; first value where cell prints two; read-out: IC50 (M) Mcl-1 FP. The protocol: The relative binding potency of each compound was determined via fluorescence Polarisation (FP). The method utilised a Fluorescein labelled ligand Fluorescein-βAla-Ahx-[A-REIGAQLRRMADDLNAQY (SEQ ID NO: 1)]-OH; mw 2,765) which binds to the Mcl-1 protein (such that corresponds to the UniProtKB® primary accession number: Q07820) leading to an increased anisotropy measured in milli-polarisation (mP) units using a reader. The addition of a compound which binds competitively to the same site as the ligand will result in a greater proportion of unbound ligand in the system indicated by a decrease in mP units.
Sequence of Mcl-1 protein (Q07820 whole entry): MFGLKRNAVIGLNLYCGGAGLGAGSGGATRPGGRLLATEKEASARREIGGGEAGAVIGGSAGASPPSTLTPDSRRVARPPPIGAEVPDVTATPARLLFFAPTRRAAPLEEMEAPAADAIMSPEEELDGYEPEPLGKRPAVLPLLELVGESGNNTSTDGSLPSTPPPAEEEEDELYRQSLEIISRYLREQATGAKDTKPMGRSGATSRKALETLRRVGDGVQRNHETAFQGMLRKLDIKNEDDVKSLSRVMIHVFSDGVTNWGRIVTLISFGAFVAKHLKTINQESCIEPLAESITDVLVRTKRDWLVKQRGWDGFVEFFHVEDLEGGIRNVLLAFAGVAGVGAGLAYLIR
Method 1: An 11 point serial dilution of each compound was prepared in DMSO and 2 μl transferred into flat bottomed, low binding, 384-well plate (final DMSO concentration 5%). 38 μl of buffer (10 mM 4-(2-hydroxyethyl)-1-piperazineethanesulfonic acid [HEPES], 150 mM NaCl, 0.05% Tween 20, pH 7.4), containing the Fluorescein labelled ligand (final concentration 1 nM) and Mcl-1 protein (final concentration 5 nM) was then added.
(§1) Assay plates were incubated ˜2 hours at room temperature before FP was measured on a […] Synergy2 reader (Ex. 528 nm, Em. 640 nm, Cut off 510 nm) and mP units calculated. The binding of increasing doses of test compound was expressed as a percentage reduction in mP compared to a window established between ‘5% DMSO only’ and ‘100% inhibition’ controls. 11-point dose response curves were plotted with XL-Fit software using a 4-Parameter Logistic Model (Sigmoidal Dose-Response Model) and the inhibitory concentrations that gave a 50% reduction in mP (IC50) were determined. Results obtained using Method 1 are presented in Table 1 below; IC50 of Mcl-1 inhibition obtained using Method 1 are not underlined.
Method 2: An 11 point serial dilution of each compound was prepared in DMSO and 2 μl transferred into flat bottomed, low binding, 384-well plate (final DMSO concentration 5%). 38 μl of buffer (20 mM Na2HPO4, 1 mM EDTA, 50 mM NaCl, pH 7.4), containing the Fluorescein labelled ligand (final concentration 10 nM) and Mcl-1 protein (final concentration 10 nM) was then added.
as §1, with “inhibition’ controls (50 μM unlabelled ligand).” for “inhibition’ controls.”, “Method 2” for “Method 1”, “are” for “are not”
In general terms: In fluorescence polarisation assays a small probe gives low polarisation when free and higher when bound to something large.
A word on the IC50: it is the concentration at which inhibition is half-maximal. With `CCc1c(-c2cccc3ccccc23)c2c(N[C@H](Cc3ccccc3)C(=O)O)ncnc2n1Cc1ccccc1` (single isomer, unassigned) [Example 12, N-[7-benzyl-6-ethyl-5-(naphthalen-1-yl)-7H-pyrrolo[2,3-d]pyrimidin-4-yl]-D-phenylalanine], the IC50 came to 5.6e-07 M.
As to `CCc1c(-c2cccc3ccccc23)c2c(N[C@H](Cc3ccccc3)C(=O)O)ncnc2n1Cc1ccccc1` (single isomer, unassigned) [Example 13, N-[7-benzyl-6-ethyl-5-(naphthalen-1-yl)-7H-pyrrolo[2,3-d]pyrimidin-4-yl]-D-phenylalanine], the IC50 was 6.6e-07 M.
Take `CCc1c(-c2cccc3ccccc23)c2c(N[C@H](Cc3ccccc3)C(=O)O)ncnc2n1CCOc1cccc2ccccc12` (single isomer, unassigned) [Example 14, N-{6-ethyl-5-(naphthalen-1-yl)-7-[2-(naphthalen-1-yloxy)ethyl]-7H-pyrrolo[2,3-d]pyrimidin-4-yl}-D-phenylalanine]: the concentration for half-maximal inhibition (IC50) worked out at 1.2e-05 M.
With `CCc1c(-c2cccc3ccccc23)c2c(N[C@H](Cc3ccccc3)C(=O)O)ncnc2n1CCOc1cccc2ccccc12` (single isomer, unassigned) [Example 15, N-{6-ethyl-5-(naphthalen-1-yl)-7-[2-(naphthalen-1-yloxy)ethyl]-7H-pyrrolo[2,3-d]pyrimidin-4-yl}-D-phenylalanine], the IC50 came out at 7.3e-06 M.
For `CCc1c(-c2cccc3ccccc23)c2c(N[C@H](Cc3ccccc3)C(=O)O)ncnc2n1CCc1ccccc1` (single isomer, unassigned) [Example 16, N-[6-ethyl-5-(naphthalen-1-yl)-7-(2-phenylethyl)-7H-pyrrolo[2,3-d]pyrimidin-4-yl]-D-phenylalanine], the IC50 was 1.8e-06 M.
`CCc1c(-c2cccc3ccccc23)c2c(N[C@H](Cc3ccccc3)C(=O)O)ncnc2n1CCc1ccccc1` (single isomer, unassigned) [Example 17, N-[6-ethyl-5-(naphthalen-1-yl)-7-(2-phenylethyl)-7H-pyrrolo[2,3-d]pyrimidin-4-yl]-D-phenylalanine]: the concentration for half-maximal inhibition (IC50) came out at 3.8e-06 M.
On to `CCc1c(-c2cccc3ccccc23)c2c(N[C@H](Cc3ccccc3)C(=O)O)ncnc2n1CCCc1ccccc1` (single isomer, unassigned) [Example 18, N-[6-ethyl-5-(naphthalen-1-yl)-7-(3-phenylpropyl)-7H-pyrrolo[2,3-d]pyrimidin-4-yl]-D-phenylalanine], for which the 50% inhibitory concentration (IC50) came to 3.1e-06 M.
The figure for `CCc1c(-c2cccc3ccccc23)c2c(N[C@H](Cc3ccccc3)C(=O)O)ncnc2n1CCCc1ccccc1` (single isomer, unassigned) [Example 19, N-[6-ethyl-5-(naphthalen-1-yl)-7-(3-phenylpropyl)-7H-pyrrolo[2,3-d]pyrimidin-4-yl]-D-phenylalanine] is 3.3e-06 M.
The same measure for `C=CCn1c(CC)c(-c2cccc(Cl)c2C)c2c(NC(Cc3ccccc3)C(=O)O)ncnc21` (single isomer, unassigned) [Example 24, N-[(5Ra)-5-(3-chloro-2-methylphenyl)-6-ethyl-7-(prop-2-en-1-yl)-7H-pyrrolo[2,3-d]pyrimidin-4-yl]-D-phenylalanine]: 1.8e-05 M.
On to `C=CCn1c(CC)c(-c2cccc(Cl)c2C)c2c(NC(Cc3ccccc3)C(=O)O)ncnc21` (single isomer, unassigned) [Example 25, N-[(5Sa)-5-(3-chloro-2-methylphenyl)-6-ethyl-7-(prop-2-en-1-yl)-7H-pyrrolo[2,3-d]pyrimidin-4-yl]-D-phenylalanine], for which the IC50 was determined as 9.1e-06 M.
In the case of `CC#CCn1c(CC)c(-c2cccc(Cl)c2C)c2c(NC(Cc3ccccc3)C(=O)O)ncnc21` (single isomer, unassigned) [Example 26, N-[7-(but-2-yn-1-yl)-(5Ra)-5-(3-chloro-2-methylphenyl)-6-ethyl-7H-pyrrolo[2,3-d]pyrimidin-4-yl]-D-phenylalanine], the half-inhibitory concentration (IC50) was 5.9e-06 M.
As to `CC#CCn1c(CC)c(-c2cccc(Cl)c2C)c2c(NC(Cc3ccccc3)C(=O)O)ncnc21` (single isomer, unassigned) [Example 27, N-[7-(but-2-yn-1-yl)-(5Sa)-5-(3-chloro-2-methylphenyl)-6-ethyl-7H-pyrrolo[2,3-d]pyrimidin-4-yl]-D-phenylalanine], the IC50 is 3.3e-07 M.
As to `CCc1c(-c2cccc(Cl)c2C)c2c(NC(Cc3ccccc3)C(=O)O)ncnc2n1CCC1CCCC1` (single isomer, unassigned) [Example 30, N-[(5Ra)-5-(3-chloro-2-methylphenyl)-7-(2-cyclopentylethyl)-6-ethyl-7H-pyrrolo[2,3-d]pyrimidin-4-yl]-D-phenylalanine], the IC50 worked out at 6.4e-06 M.
`CCc1c(-c2cccc(Cl)c2C)c2c(NC(Cc3ccccc3)C(=O)O)ncnc2n1CCC1CCCC1` (single isomer, unassigned) [Example 31, N-[(5Sa)-5-(3-chloro-2-methylphenyl)-7-(2-cyclopentylethyl)-6-ethyl-7H-pyrrolo[2,3-d]pyrimidin-4-yl]-D-phenylalanine]: the IC50 is 7.9e-07 M.
With `CCc1c(-c2cccc(Cl)c2C)c2c(NC(Cc3ccccc3)C(=O)O)ncnc2n1Cc1cccc2ccccc12` (single isomer, unassigned) [Example 32, N-[(5Ra)-5-(3-chloro-2-methylphenyl)-6-ethyl-7-(naphthalen-1-ylmethyl)-7H-pyrrolo[2,3-d]pyrimidin-4-yl]-D-phenylalanine], the IC50 was 3.5e-06 M.
Regarding `CCc1c(-c2cccc(Cl)c2C)c2c(NC(Cc3ccccc3)C(=O)O)ncnc2n1Cc1cccc2ccccc12` (single isomer, unassigned) [Example 33, N-[(5Sa)-5-(3-chloro-2-methylphenyl)-6-ethyl-7-(naphthalen-1-ylmethyl)-7H-pyrrolo[2,3-d]pyrimidin-4-yl]-D-phenylalanine], the half-inhibitory concentration (IC50) turned out to be 2.6e-07 M.
As for `CCc1c(-c2cccc(Cl)c2C)c2c(NC(Cc3ccccc3)C(=O)O)ncnc2n1Cc1ccc(OC)cc1` (single isomer, unassigned) [Example 34, N-[(5Ra)-5-(3-chloro-2-methylphenyl)-6-ethyl-7-(4-methoxybenzyl)-7H-pyrrolo[2,3-d]pyrimidin-4-yl]-D-phenylalanine], the IC50 came out at 6.4e-06 M.
On to `CCc1c(-c2cccc(Cl)c2C)c2c(NC(Cc3ccccc3)C(=O)O)ncnc2n1Cc1ccc(OC)cc1` (single isomer, unassigned) [Example 35, N-[(5Sa)-5-(3-chloro-2-methylphenyl)-6-ethyl-7-(4-methoxybenzyl)-7H-pyrrolo[2,3-d]pyrimidin-4-yl]-D-phenylalanine], for which the IC50 came to 2.9e-07 M.
On to `CCc1c(-c2cccc(Cl)c2C)c2c(NC(Cc3ccccc3)C(=O)O)ncnc2n1Cc1ccccc1` (single isomer, unassigned) [Example 36, N-[7-benzyl-(5Ra)-5-(3-chloro-2-methylphenyl)-6-ethyl-7H-pyrrolo[2,3-d]pyrimidin-4-yl]-D-phenylalanine], for which the IC50 is 6.5e-06 M.
As to `CCc1c(-c2cccc(Cl)c2C)c2c(NC(Cc3ccccc3)C(=O)O)ncnc2n1Cc1ccccc1` (single isomer, unassigned) [Example 37, N-[7-benzyl-(5Sa)-5-(3-chloro-2-methylphenyl)-6-ethyl-7H-pyrrolo[2,3-d]pyrimidin-4-yl]-D-phenylalanine], the half-maximal inhibitory concentration (IC50) was 5.3e-07 M.
Take `C=CCCn1c(Br)c(-c2cccc(Cl)c2C)c2c(NC(Cc3ccccc3)C(=O)O)ncnc21` (single isomer, unassigned) [Example 41, N-[6-bromo-7-(but-3-en-1-yl)-(5Ra)-5-(3-chloro-2-methylphenyl)-7H-pyrrolo[2,3-d]pyrimidin-4-yl]-D-phenylalanine]: the IC50 is 1.3e-05 M.
As for `C=CCCn1c(Br)c(-c2cccc(Cl)c2C)c2c(NC(Cc3ccccc3)C(=O)O)ncnc21` (single isomer, unassigned) [Example 42, N-[6-bromo-7-(but-3-en-1-yl)-(5Sa)-5-(3-chloro-2-methylphenyl)-7H-pyrrolo[2,3-d]pyrimidin-4-yl]-D-phenylalanine], the IC50 worked out at 4.5e-07 M.
`Cc1c(Cl)cccc1-c1c2n(c3ncnc(NC(Cc4ccccc4)C(=O)O)c13)CCCC2` (single isomer, unassigned) [Example 47, N-[(5Ra)-5-(3-chloro-2-methylphenyl)-6,7,8,9-tetrahydropyrimido[5,4-b]indolizin-4-yl]-D-phenylalanine]: the half-maximal inhibitory concentration (IC50) came out at 1.1e-05 M.

(Values after patent US10323041B2, “Bicyclic derivatives, a process for their preparation and pharmaceutical compositions containing them” (LES LABORATOIRES SERVIER, priority 2015, dated 2019).)
